In US20100285146A1, “PEPTIDES AND METHODS FOR THE TREATMENT OF SYSTEMIC LUPUS ERYTHEMATOSUS” (priority 2007, published 2010):
No end group written: not given here.

Legend:
[1] = test system: C72 murine anti-DNA antibody; assay: Anti-peptide direct binding ELISA with C72; settings: for C72 Binding: direct binding ELISA, footnote: O.D. after one (1) hour
Procedure: (§1) Wells were coated with 10 μg/ml of the peptides, blocked with 1% BSA (bovine serum albumin) in PBS (pH 7.4), reacted with appropriately diluted plasma or monoclonal antibodies, incubated with anti-human or anti-mouse immunoglobulin enzyme conjugated to alkaline phosphatase and detected by addition of substrate (Sigma 100 Phosphatase Substrate Tablets) and color development using an Organon Teknika Microwell System spectrometer at wavelength of 405 nm.
(§2) The interaction of the C72 murine anti-DNA antibody with laminin peptides was analyzed by ELISA as described above. The C72 conditioned medium was diluted in PBS in various dilutions.
(§3) The peptides of the present invention were tested for their ability to bind directly with C72 murine anti-DNA antibodies and B3 human anti-DNA antibodies according to the method described hereinabove.

[2] = test system: B3 human anti-DNA antibodies; assay: Anti-peptide direct binding ELISA with B3; settings: for B3 Binding: direct binding ELISA, footnote: O.D. after two (2) hours
Procedure: as §1
(§4) The human monoclonal anti-DNA antibodies DIL 6 and B3 were derived from lupus patients by the hybridoma technique. […] In FIGS. 3 and 4, the peptides are referred to as denoted above or as follows; AS30 is R27, AS19 is R35, AS35 is R26, AS17 is R28 and AS6 is R18.
as §3

[3] = test system: C72 murine anti-DNA antibody; assay: Competitive inhibition of the binding of C72 to 5200; settings: after incubation of C72 with the inhibiting agent
Procedure: The binding of C72 to 5200 was tested before and after incubation with 5200, R38, R18, Heparin, DNA and DNase. […] The percent inhibition is the percent reduction of the O.D. after incubation with the inhibiting agent.

C72 anti-DNA antibody = assay: Competitive inhibition of C72 binding to R38 (5100); design: species or system murine; settings: concentration of competitive inhibitor giving 50% inhibition, ELISA
Description: A competitive inhibition study compared how each of the peptides competes with R38 (5100) for binding to the C72 anti-DNA antibody. Conducted according to the methods described hereinabove, the results of the study are disclosed in Table 4 below and are further elucidated by reference to FIG. 10.

[4] = test system: urine antibodies of lupus patients; assay: Urine anti-peptide antibody ELISA in patients; format: binding, human; settings: Example 5
Procedure: as §1
Activity of the disease was evaluated also by accepted clinical and serological parameters (Lockshin M. D. et al. Am. J. Med (1984) 77 893-898) and their correlation with anti-R38 levels was compared. 103 urine samples of 37 SLE patients were tested for anti-R38 activity by ELISA as described above. 23 of the samples were from patients without renal disease and 80 samples from patients with renal disease. A further 12 samples from patients with renal disease not related to SLE were also included.

MRL/1pr/1pr mice = assay: Clinical course of murine SLE (survival, renal histology); format: in vivo; settings: for renal histology by light microscopy: two mice sacrificed after 5 months, controls severe diffuse proliferative glomerulonephritis
Procedure: To test whether R38 peptides can affect the course of SLE we have tested their effect on MRL/1pr/1pr mice disease. 60 μg of 5200 (R38′ alone or in peptide combinations, 30 μg of each) in 0.1 ml PBS, was injected i.p. to 6 week old female MRL/1pr/1pr mice once a week for 16 weeks and the mice were evaluated for survival (FIG. 8), and for renal histology.
50 μg of 5100 (R38) or 5300 (human R38) in 0.1 ml PBS, was injected i.p. to 6 week old MRL/1pr/1pr mice three times a week and the mice were evaluated for survival (FIG. 9), and for renal histology. Control mice received 0.1 ml phosphate buffer solution. Each test and control group contained 12-15 mice.
The survival of MRL/1pr/1pr mice treated with 5100, 5200 or 5300 was compared to that of PBS treated mice. […] In FIGS. 8 and 9 the time in days shown on the x axis relates to the age of the mice. Two mice in each group were sacrificed after 5 months and their kidneys evaluated by light microscopy.

C72 antibody = assay: Affinity absorption on R38 column, C72 sample; format: binding, mouse
Procedure: (§5) The R38 peptide was dissolved in the coupling buffer (0.2M NaHCO3, 0.5M NaCl, pH 8.3) in a concentration of 1 mg/ml in 5 ml coupling buffer. A 5 ml N-hydroxysuccinimide (NHS)-activated Sepharose™ High Performance Column (Pharmacia 17-0717-01) is used. The isopropanol in the column was washed out from the column with 30 ml of cold (4° C.) 1 mM HCl and 5 ml of the peptide solution was then injected onto the column with a syringe (2.5 ml/minute). The column was sealed and stood for 30 minutes at room temperature. The column was then washed with 30 ml Buffer A (0.5 M ethanolamine, 0.5 M NaCl, pH 8.3) and 30 ml Buffer B (0.5 M acetate, 0.5 M NaCl, pH 4) consecutively three times, and then with neutral pH buffer (0.05 M Na2HPO4 and 0.1% NaN3).
The column was washed with 15 ml PBS (phosphate buffered saline), followed by 15 ml elution buffer (0.1 M glycine HCl) and then 50 ml PBS. The C72 antibody or the patients' plasma samples were filtered through a 0.45 microm filter. The samples were applied onto the column by a fitted syringe at a rate of 2.5 ml/min. The column was then washed with 5 ml PBS and the flow-through was applied to the column again. […]
(§6) In the instant example, the mouse C72 and the SLE patients' plasma were applied to the R38 column. Their anti-R38 binding was evaluated by ELISA in the original samples and in the flow-through of the column.

[5] = test system: anti-R38 antibodies in human plasma; assay: Affinity absorption on R38 column, human plasma samples; format: binding; settings: for Binding to R38 (O.D.), Original sample: before column; for Binding to R38 (O.D.), After immunoabsorption: flow-through of R38 column
Procedure: as §5
The column was washed with 15 ml PBS (phosphate buffered saline), followed by 15 ml elution buffer (0.1 M glycine HCl) and then 50 ml PBS. The C72 antibody or the patients' plasma samples were filtered through a 0.45 microm filter. The samples were applied onto the column by a fitted syringe at a rate of 2.5 ml/min. The column was then washed with 5 ml PBS and the flow-through was applied to the column again. The binding of the samples (original and flow-through) to R38 was tested by the anti-R38 ELISA test.
as §6

[6] = test system: urine antibodies of lupus patients; assay: Urine anti-peptide antibody ELISA in patients; format: binding, human
[7] = molecular target: 5101 peptide (Res. 1-16 of 5100) (mouse); assay: direct binding ELISA, peptide-coated wells, read after two hours
[8] = molecular target: 5102 peptide (Res. 6-17 of 5100) (mouse); assay: as above
[9] = molecular target: 5200 peptide (R38′), mouse R38 analog; assay: as above
Chain of 5200 peptide (R38′), mouse R38 analog (peptide, as listed by the source): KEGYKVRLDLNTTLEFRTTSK

[10] = molecular target: 5300 peptide, human R38 (human); assay: as above
Chain of 5300 peptide, human R38 (human) (peptide, as listed by the source): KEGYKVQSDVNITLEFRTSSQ

[11] = molecular target: R38 peptide (5100), mouse R38 (mouse); assay: as above
[12] = test system: human monoclonal anti-DNA antibody DIL 6; assay: Anti-peptide direct binding ELISA with DIL6
Procedure: as §1, §4

[13] = test system: anti-HEL Hy5 control murine antibody; assay: Direct binding ELISA with control murine antibody; settings: data not shown
Procedure: as §1, §2

[14] = test system: MRL/1pr/1pr urine antibodies; assay: Binding of murine urinary immunoglobulins, MRL/1pr/1pr urine; design: species or system mice
Procedure: as §1
(§7) Thus, pooled urine from at least 5 mice (either MRL/1pr/1pr or control mice, e.g. BALB/c) was added to wells coated with R38′ (5200), R18 or DNA as described above and bound 5200 assayed by ELISA.
(§8) Each group is comprised of pooled urine.

[15] = test system: BALB/c urinary immunoglobulins; assay: Binding of murine urinary immunoglobulins, BALB/c control urine; settings: pooled urine of BALB/c control mice
Procedure: as §1, §7, §8

For KEGYKVRLDLNITLEFRTTSK [Peptide 5100], the “C72 Binding” value [1] was 2.57 O.D, the “B3 Binding” value [2] was 0.9 O.D and the “inhibition of the binding of C72 to 5200 (FIG. 2)” value [3] was “inhibition”. For the same compound, the “50% Inhibition of C72 binding to mouse R38 (5100)” value (C72 anti-DNA antibody) was 10 µg/mL, the “Urine anti-R38 O.D. (Mean + S.E.)” value ([4]; SLE absent, renal disease present, 12 samples) was 0.07 ± 0.01 O.D and the “Urine anti-R38 O.D. (Mean + S.E.)” value ([4]; SLE present, renal disease absent, 23 samples) was 0.035 ± 0.003 O.D. The “Urine anti-R38 O.D. (Mean + S.E.)” value ([4]; SLE present, renal disease present, 80 samples, p < 0.001) was 0.229 ± 0.03 O.D, the “survival versus PBS control mice (FIG. 9)” value (MRL/1pr/1pr mice; 50 μg i.p. three times a week, 6 week old mice) was “significantly higher” and the “renal histology by light microscopy” value (MRL/1pr/1pr mice; 50 μg i.p. three times a week) was “mild proliferative changes with no crescents and no sclerosis”. For the same compound, the “Binding to R38 (O.D.), Original sample” value (C72 antibody; sample C72, before column) was 1.96 O.D, the “Binding to R38 (O.D.), After immunoabsorption” value (C72 antibody; sample C72, flow-through of R38 column) was 0.02 O.D and the “Binding to R38 (O.D.), Original sample” value ([5]; Healthy donor's plasma) was 0.26 O.D. For the same compound, the “Binding to R38 (O.D.), After immunoabsorption” value ([5]; Healthy donor's plasma) was 0.06 O.D, the “Binding to R38 (O.D.), Original sample” value ([5]; SLE patient 1 plasma) was 1.5 O.D and the “Binding to R38 (O.D.), After immunoabsorption” value ([5]; SLE patient 1 plasma) was 0.6 O.D. For the same compound, the “Binding to R38 (O.D.), Original sample” value ([5]; SLE patient 2 plasma) was 2.3 O.D, the “Binding to R38 (O.D.), After immunoabsorption” value ([5]; SLE patient 2 plasma) was 1.6 O.D and the “Urine anti-5100 O.D. (Mean + S.E.)” value ([6]; Example 7, renal disease absent, 6 samples) was 0.058 ± 0.006 O.D. For the same compound, the “Urine anti-5100 O.D. (Mean + S.E.)” value ([6]; Example 7, renal disease present, 39 samples, p < 0.03) was 0.376 ± 0.05 O.D.

Work on B3 human monoclonal anti-DNA antibody yielded an O.D. in a direct binding ELISA [7] of 0.1 O.D, an O.D. in a direct binding ELISA [8] of 0.02 O.D and an O.D. in a direct binding ELISA [9] of 0.25 O.D. It also gave an O.D. in a direct binding ELISA [10] of 0.03 O.D and an O.D. in a direct binding ELISA [11] of 0.9 O.D.

In the case of CC(C)C[C@H](NC(=O)[C@H](CC(=O)O)NC(=O)[C@H](CC(C)C)NC(=O)[C@H](CCCNC(=N)N)NC(=O)[C@@H](NC(=O)[C@H](CCCCN)NC(=O)[C@H](Cc1ccc(O)cc1)NC(=O)CNC(=O)[C@H](CCC(=O)O)NC(=O)[C@@H](N)CCCCN)C(C)C)C(=O)N[C@@H](CC(N)=O)C(=O)N[C@H](C(=O)N[C@H](C(=O)N[C@@H](CC(C)C)C(=O)N[C@@H](CCC(=O)O)C(=O)N[C@@H](Cc1ccccc1)C(=O)N[C@@H](CCCNC(=N)N)C(=O)N[C@H](C(=O)N[C@H](C(=O)N[C@@H](CO)C(=O)N[C@@H](CCCCN)C(=O)O)[C@@H](C)O)[C@@H](C)O)[C@@H](C)O)[C@@H](C)O (stereo in doubt) [Peptide 5200], the “binding of C72 murine anti-DNA antibody to laminin peptides (FIG. 1)” value ([1]; ELISA, C72 conditioned medium in various dilutions) is reported as “binding”, the “C72 Binding” value [1] is reported as 1.8 O.D and the “binding of B3 to laminin peptides (FIGS. 3 and 4)” value [2] is reported as “bind”. The “B3 Binding” value [2] was 0.25 O.D, the “binding of DIL 6 to laminin peptides (FIGS. 3 and 4)” value [12] was “bind” and the “binding of control antibody anti-HEL Hy5” value [13] was “did not bind”. The “inhibition of the binding of C72 to 5200 (FIG. 2)” value [3] was “inhibition”, the “50% Inhibition of C72 binding to mouse R38 (5100)” value (C72 anti-DNA antibody) was 10 µg/mL and the “interaction of MRL/1pr/1pr urine antibodies with peptide” value ([14]; direct binding ELISA) was “specific binding”. The “Binding of murine urinary immunoglobulins to antigen” value ([14]; pooled urine of MRL/1pr/1pr mice) was 0.26(*) O.D. at 405 nm, the “Binding of murine urinary immunoglobulins to antigen” value [15] was “U.D” and the “survival versus PBS control mice (FIG. 8)” value (MRL/1pr/1pr mice; 60 μg i.p. once a week for 16 weeks, 6 week old female mice) was “significantly higher”. For the same compound, the “renal histology by light microscopy” value (MRL/1pr/1pr mice; 60 μg i.p. once a week) was “mild proliferative changes with no crescents and no sclerosis”, the “Urine anti-5200 O.D. (Mean + S.E.)” value ([6]; Example 6, renal disease absent, 46 samples) was 0.05 ± 0.005 O.D and the “Urine anti-5200 O.D. (Mean + S.E.)” value ([6]; Example 6, renal disease present, 132 samples, p < 0.001) was 0.335 ± 0.035 O.D. The “Urine anti-5200 O.D. (Mean + S.E.)” value ([6]; Example 8, renal disease absent, 6 samples) was 0.052 ± 0.03 O.D and the “Urine anti-5200 O.D. (Mean + S.E.)” value ([6]; Example 8, renal disease present, 46 samples) was 0.431 ± 0.09 O.D.
